What was measured:
human DP2 receptor = target: T1, human DP2 receptor (Homo sapiens, UniProt Q9Y5Y4); test: DP2/CRTH2 binding assay (radioligand [3H]PGD2); conditions: [3H]PGD2 binding, membranes of HEK293 cells expressing recombinant human DP2; read-out: hDP2
T1 construct: expressed in transfected cells
T1 sequence (Q9Y5Y4 1-395): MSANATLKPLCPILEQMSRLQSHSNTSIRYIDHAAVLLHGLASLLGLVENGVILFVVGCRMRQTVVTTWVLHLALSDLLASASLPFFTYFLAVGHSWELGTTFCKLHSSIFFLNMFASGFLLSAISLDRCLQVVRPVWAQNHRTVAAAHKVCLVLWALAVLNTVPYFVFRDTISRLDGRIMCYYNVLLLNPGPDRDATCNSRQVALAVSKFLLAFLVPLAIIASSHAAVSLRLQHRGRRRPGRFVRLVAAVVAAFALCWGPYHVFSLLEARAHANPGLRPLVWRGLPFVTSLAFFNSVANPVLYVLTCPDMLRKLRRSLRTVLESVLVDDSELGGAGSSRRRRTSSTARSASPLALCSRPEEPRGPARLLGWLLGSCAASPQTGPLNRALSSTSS
Experimental: The ability of a compound to bind to the human DP2 receptor is assessed via a radioligand binding assay using [^3H]PGD2. HEK293 cells stably expressing recombinant human DP2 are resuspended in 10 mM Hepes, 7.4 containing 1 mM DTT, lysed and centrifuged at 75,000×g to pellet the membranes. The membranes are resuspended in 10 mM Hepes, 7.4 containing 1 mM DTT and 10% glycerol to approximately 5 mg protein/ml. Membranes (2-10 μg protein/well) are incubated in 96-well plates with 1 nM [^3H]PGD2 and test compound in Assay Buffer (50 mM Hepes, 10 mM MnCl2, 1 mM EDTA, plus or minus 0.2% human serum albumin, pH 7.4) for 60 minutes at room temperature. The reactions are terminated by rapid filtration through Whatman GF/C glass fibre filter plates. The filter plates were pre-soaked in 0.33% polythylenimine for 30 minutes at room temperature then washed in Wash Buffer (50 mM Hepes, 0.5 M NaCl pH 7.4) prior to harvesting. After harvesting, the filter plates are washed 3 times with 1 ml cold Wash Buffer then dried. Scintillant is then added to the plates and the radioactivity retained on the filters is determined on a Packard TopCount (Perkin Elmer). Specific binding is determined as total radioactive binding minus non-specific binding in the presence of 10 μM PGD2. IC50s were determined using GraphPad prism analysis of drug titration curves.

human DP1 receptor = target: T2, human DP1 receptor (Homo sapiens, UniProt Q13258); test: DP1 binding assay (radioligand [3H]BWA868C); conditions: [3H]BWA868C binding, human platelet membranes; read-out: hDP1
T2 construct: tissue Biological Specialty Corporation; host or cells: human platelets, membrane preparation
T2 sequence (Q13258 1-359): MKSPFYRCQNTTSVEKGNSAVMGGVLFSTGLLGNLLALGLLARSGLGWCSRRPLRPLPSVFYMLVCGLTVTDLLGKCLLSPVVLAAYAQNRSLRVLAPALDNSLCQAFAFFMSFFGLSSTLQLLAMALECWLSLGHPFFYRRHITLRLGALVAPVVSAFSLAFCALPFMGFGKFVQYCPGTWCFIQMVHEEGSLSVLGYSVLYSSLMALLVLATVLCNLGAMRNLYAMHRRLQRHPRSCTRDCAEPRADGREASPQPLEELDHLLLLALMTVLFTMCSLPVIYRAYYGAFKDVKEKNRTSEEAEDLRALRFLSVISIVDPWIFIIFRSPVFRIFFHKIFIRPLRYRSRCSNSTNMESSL
Experimental: The ability of a compound to bind to the human DP1 receptor was evaluated via a radioligand membrane binding assay using the DP1 selective synthetic ligand [^3H]BWA868C. Packed human platelets (Biological Specialty Corporation), were resuspended in 6 volumes of Hepes/HBSS buffer (10 mM Hepes, 1 mM DTT in Hanks Balanced Salt Solution (HBSS), lysed and centrifuged at 75,000×g to pellet the membranes. Membranes were resuspended in Hepes/HBSS buffer to approximately 12 mg protein/ml. Membranes (20 μg protein/well) are incubated in 96-well plates with 2 nM [^3H]BWA868C and test compound in Assay Buffer (50 mM Hepes, 10 mM MnCl2, 1 mM EDTA, plus or minus 0.2% human serum albumin, pH 7.4) for 60 minutes at room temperature. The reactions are terminated by rapid filtration through Whatman GF/C glass fibre filter plates. The filter plates were pre-soaked in 0.33% polethylenimine for 30 minutes at room temperature then washed in Wash Buffer (50 mM Hepes, 0.5 M NaCl pH 7.4) prior to harvesting. After harvesting, the filter plates are washed 3 times with 1 ml cold Wash Buffer then dried. Scintillant is then added to the plates and the radioactivity retained on the filters is determined on a Packard TopCount (Perkin Elmer). Specific binding is determined as total radioactive binding minus non-specific binding in the presence of 10 μM BW A868C. IC50s were determined using GraphPad prism analysis of drug titration curves.

IC50 (human DP2 receptor) [nM] | IC50 (human DP1 receptor) [nM] | SMILES
< 300 | > 1000 | O=C(O)CN(C1CCc2c(c3ccccc3n2CC(=O)O)C1)S(=O)(=O)c1ccc(F)cc1 (centres unmarked) [Compound 1-1, {3-[Carboxymethyl-(4-fluoro-benzenesulfonyl)-amino]-1,2,3,4-tetrahydro-carbazol-9-yl}-acetic acid]
> 1000 | > 1000 | CC(C)(O)CCn1c2c(c3ccccc31)CC(N(CC(=O)O)S(=O)(=O)c1ccc(F)cc1)CC2 (centres unmarked) [Compound 1-2, {(4-Fluoro-benzenesulfonyl)-[9-(3-hydroxy-3-methyl-butyl)-2,3,4,9-tetrahydro-1H-carbazol-3-yl]-amino}-acetic acid]
> 1000 | > 1000 | CC(C)(O)CN(C1CCc2c(c3ccccc3n2CCC(=O)O)C1)S(=O)(=O)c1ccc(F)cc1 (centres unmarked) [Compound 1-3, 3-{3-[(4-Fluoro-benzenesulfonyl)-(2-hydroxy-2-methyl-propyl)-amino]-1,2,3,4-tetrahydro-carbazol-9-yl}-propionic acid]
> 1000 | > 1000 | CC(C)(O)CCn1c2c(c3ccccc31)CC(N(CC(C)(C)O)S(=O)(=O)c1ccc(F)cc1)CC2 (centres unmarked) [Compound 1-4, 4-FluoroN-[9-(3-hydroxy-3-methyl-butyl)-2,3,4,9-tetrahydro-1H-carbazol-3-yl]-N-(2-hydroxy-2-methyl-propyl)-benzenesulfonamide]
> 1000 | > 1000 | NC(=O)CN(C1CCc2c(c3ccccc3n2CCC(=O)O)C1)S(=O)(=O)c1ccc(F)cc1 (centres unmarked) [Compound 1-5, 3-{3-[Carbamoylmethyl-(4-fluoro-benzenesulfonyl)-amino]-1,2,3,4-tetrahydro-carbazol-9-yl}-propionic acid]
> 1000 | > 1000 | O=C(O)CCn1c2c(c3ccccc31)CC(N(CC(=O)O)S(=O)(=O)c1ccc(F)cc1)CC2 (centres unmarked) [Compound 1-6, 3-{3-[Carboxymethyl-(4-fluoro-benzenesulfonyl)-amino]-1,2,3,4-tetrahydro-carbazol-9-yl}-propionic acid]
> 300 | > 1000 | O=C(O)CCn1c2c(c3ccccc31)C[C@H](NS(=O)(=O)c1ccc(F)cc1)CC2 [Ramatroban, reference compound]
